Measurements taken from patent US20250009755A1, “COMPOSITIONS AND METHODS FOR THE TREATMENT OF OCULAR DISEASES AND INJURIES” (Ohio State Innovation Foundation, priority 2021, published 2025).

Assays:
[1] = cited from earlier work
C5 = target: T1, C5 (Homo sapiens, UniProt P01031); conditions: intravitreal injections, Phase 2/3 GATHER1; cited from earlier work
T1 construct: host or cells: endogenous C5 of study patients

VEGF-A = conditions: wet AMD patients; cited from earlier work
C3 = target: T2, C3 (Homo sapiens, UniProt P01024); conditions: intravitreal injection, Phase 2 FILLY; cited from earlier work
T2 construct: host or cells: endogenous C3 of study patients

HUVECs = test: H2O2-induced tubule formation in HUVECs co-cultured with ARPE-19 cells (Calcein AM); assay type: cell-based, human; conditions: 200 μM H2O2; 10 μg/mL NPs or 5 μg/mL bevacizumab; vs positive control
Description: Under oxidative stress induced by 200 μM H2O2, ARPE-19 cells were co-cultured with human umbilical vein endothelial cells (HUVECs) to investigate the influence of H2O2 and drug-loaded PDA NPs on the development of the three-dimensional capillary structure. Exposure to H2O2 induced secretion of VEGF and tubule formation. Cells were then incubated with 5 μg/mL native bevacizumab control or 10 μg/mL NPs with and without anti-VEGF. […] The reaction of PDA NPs with H2O2 also simultaneously degraded (FIG. 6B) and triggered drug release (FIG. 7), favorable for spatiotemporal control of release at disease sites.

T1 sequence (P01031 19-673 limits assumed): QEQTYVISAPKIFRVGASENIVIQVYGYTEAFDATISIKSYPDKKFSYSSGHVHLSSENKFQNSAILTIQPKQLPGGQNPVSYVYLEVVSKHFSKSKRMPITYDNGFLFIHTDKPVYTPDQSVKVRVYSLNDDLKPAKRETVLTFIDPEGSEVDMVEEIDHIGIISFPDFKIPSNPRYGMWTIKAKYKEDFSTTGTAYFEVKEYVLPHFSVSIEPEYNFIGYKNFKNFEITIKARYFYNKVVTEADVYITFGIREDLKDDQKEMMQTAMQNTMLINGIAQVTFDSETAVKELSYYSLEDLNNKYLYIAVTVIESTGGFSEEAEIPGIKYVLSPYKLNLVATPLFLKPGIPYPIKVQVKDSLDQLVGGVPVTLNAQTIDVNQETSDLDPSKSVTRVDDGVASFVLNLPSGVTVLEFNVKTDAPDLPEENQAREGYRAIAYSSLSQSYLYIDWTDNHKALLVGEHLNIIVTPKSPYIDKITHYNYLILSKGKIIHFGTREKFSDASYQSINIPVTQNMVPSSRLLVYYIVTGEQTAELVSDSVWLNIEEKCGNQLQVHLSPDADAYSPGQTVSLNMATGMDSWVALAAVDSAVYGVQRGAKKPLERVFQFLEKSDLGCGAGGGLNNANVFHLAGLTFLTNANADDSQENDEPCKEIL
T1 sequence (P01031 678-1676 limits assumed): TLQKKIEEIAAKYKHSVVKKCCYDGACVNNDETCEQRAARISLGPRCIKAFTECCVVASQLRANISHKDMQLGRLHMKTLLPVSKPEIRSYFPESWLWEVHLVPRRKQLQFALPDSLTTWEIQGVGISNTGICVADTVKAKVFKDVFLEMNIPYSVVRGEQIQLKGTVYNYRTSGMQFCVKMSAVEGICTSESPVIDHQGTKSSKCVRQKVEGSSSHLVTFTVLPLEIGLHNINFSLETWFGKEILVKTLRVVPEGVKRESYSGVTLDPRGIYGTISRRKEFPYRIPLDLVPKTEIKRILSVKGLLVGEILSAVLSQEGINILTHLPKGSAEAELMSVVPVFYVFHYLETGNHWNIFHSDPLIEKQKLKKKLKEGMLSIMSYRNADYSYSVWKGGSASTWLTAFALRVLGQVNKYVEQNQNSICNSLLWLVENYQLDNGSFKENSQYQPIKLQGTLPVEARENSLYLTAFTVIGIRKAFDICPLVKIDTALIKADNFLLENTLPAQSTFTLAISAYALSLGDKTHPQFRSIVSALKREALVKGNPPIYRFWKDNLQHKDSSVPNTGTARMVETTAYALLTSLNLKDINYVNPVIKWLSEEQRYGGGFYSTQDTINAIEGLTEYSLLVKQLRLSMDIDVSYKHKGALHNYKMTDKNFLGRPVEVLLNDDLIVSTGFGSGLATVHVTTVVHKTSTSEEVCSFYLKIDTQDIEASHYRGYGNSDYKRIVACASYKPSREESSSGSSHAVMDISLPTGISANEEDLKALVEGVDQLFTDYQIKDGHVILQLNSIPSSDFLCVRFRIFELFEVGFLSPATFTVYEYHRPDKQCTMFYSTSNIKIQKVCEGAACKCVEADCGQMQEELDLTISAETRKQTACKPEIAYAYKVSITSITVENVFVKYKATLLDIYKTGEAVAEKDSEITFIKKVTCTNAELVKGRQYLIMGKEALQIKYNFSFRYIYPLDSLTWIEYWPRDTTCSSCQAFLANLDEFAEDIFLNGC
T2 sequence (P01024 23-667 limits assumed): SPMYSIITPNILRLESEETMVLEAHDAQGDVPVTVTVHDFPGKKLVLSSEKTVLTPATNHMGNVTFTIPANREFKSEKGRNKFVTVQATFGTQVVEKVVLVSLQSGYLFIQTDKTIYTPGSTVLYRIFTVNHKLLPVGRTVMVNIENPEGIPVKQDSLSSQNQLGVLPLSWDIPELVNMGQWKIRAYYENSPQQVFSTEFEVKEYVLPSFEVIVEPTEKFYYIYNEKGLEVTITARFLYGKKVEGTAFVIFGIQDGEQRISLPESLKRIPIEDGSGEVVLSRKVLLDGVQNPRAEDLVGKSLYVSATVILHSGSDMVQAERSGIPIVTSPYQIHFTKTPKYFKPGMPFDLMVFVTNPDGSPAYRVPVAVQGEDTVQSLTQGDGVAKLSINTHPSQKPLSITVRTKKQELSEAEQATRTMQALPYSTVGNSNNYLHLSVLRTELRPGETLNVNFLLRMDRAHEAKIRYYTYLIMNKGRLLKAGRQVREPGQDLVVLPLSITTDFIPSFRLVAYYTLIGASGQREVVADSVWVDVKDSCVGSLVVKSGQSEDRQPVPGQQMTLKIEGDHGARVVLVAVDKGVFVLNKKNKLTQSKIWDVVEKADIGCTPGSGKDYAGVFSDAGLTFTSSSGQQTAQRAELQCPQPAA
T2 sequence (P01024 672-1663 partner limits assumed): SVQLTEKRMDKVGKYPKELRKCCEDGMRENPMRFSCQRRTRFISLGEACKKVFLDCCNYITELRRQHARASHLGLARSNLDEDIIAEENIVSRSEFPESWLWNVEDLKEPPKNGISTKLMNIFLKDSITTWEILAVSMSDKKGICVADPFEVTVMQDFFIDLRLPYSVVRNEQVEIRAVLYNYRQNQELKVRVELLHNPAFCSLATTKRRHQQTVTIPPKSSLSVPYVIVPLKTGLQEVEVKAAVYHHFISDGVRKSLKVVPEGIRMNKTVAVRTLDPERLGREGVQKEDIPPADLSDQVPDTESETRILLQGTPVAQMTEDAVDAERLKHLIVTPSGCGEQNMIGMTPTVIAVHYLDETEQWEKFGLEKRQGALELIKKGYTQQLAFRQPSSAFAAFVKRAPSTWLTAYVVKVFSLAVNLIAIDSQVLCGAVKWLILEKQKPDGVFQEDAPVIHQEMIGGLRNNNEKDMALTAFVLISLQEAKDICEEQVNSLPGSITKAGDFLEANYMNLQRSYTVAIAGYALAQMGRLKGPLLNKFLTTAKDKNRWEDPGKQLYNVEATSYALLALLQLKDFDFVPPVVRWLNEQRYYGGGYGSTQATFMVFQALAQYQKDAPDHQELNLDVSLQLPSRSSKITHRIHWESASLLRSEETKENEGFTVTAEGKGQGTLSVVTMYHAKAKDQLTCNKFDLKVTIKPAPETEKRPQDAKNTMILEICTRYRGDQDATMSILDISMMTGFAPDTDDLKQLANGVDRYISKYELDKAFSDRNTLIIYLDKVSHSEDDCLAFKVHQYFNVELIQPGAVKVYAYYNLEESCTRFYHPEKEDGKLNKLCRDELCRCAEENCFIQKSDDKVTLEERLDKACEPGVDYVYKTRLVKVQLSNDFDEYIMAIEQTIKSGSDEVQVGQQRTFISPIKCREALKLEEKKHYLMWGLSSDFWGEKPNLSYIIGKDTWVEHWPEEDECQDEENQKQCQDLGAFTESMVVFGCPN
Chain of VEGF-A (P15692 207-311 limits assumed): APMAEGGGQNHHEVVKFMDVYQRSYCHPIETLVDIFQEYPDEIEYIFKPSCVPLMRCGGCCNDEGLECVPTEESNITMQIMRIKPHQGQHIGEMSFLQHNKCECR

In the case of `C=CC1=C(C)c2cc3[n-]c(cc4[n-]c(cc5nc(cc1n2)C(C)=C5C=C)c(C)c4CCC(=O)O)c(CCC(=O)O)c3C.[Fe+2]` [Heme], the aqueous solubility [1] is listed as “insoluble in aqueous solution”.

For avacincaptad pegol, the GA growth rate (C5) is given as “significantly reduced GA growth rate”.

In the case of “RAN: monoclonal antibody fragment with strong affinity to VEGF-A”, the “patients with improved vision” value (VEGF-A) is given as 29%-40%.

For pegcetacoplan, the GA growth rate (C3) is given as “significantly reduced GA growth rate”.

In the case of “bevacizumab: a monoclonal antibody that inhibits VEGF-A”, the “tubule formation in HUVECs” value (HUVECs) is reported as “significant decrease”.
